According to PMC8618187 (Nanomaterials, 2021):
Where two headings read alike, the source gives them in different places.

Experiments:
[1] = In vitro PTX release with kinetic modelling (with/without GSH); format: physicochemical; conditions: without GSH
Procedure: Glutathione (GSH)-triggered release was investigated in vitro from Ms, R-Ms, PR-Ms, and PT-R-Ms formulations (without GSH) and from PT-R-Ms in the presence of 20 mM GSH.
Redox responsive multifunctional micelles remained indolent in the physiological environment and became activated when they reached a reductive environment, which is another approach for targeted site-specific delivery. As a proof-of-concept, glutathione (GSH)-triggered release (to mimic the redox tumor microenvironment) was investigated in vitro from Ms, R-Ms, PR-Ms, and PT-R-Ms formulations (without GSH) and from PT-R-Ms in the presence of 20 mM GSH. The controlled burst release was confirmed by applying kinetic models of drug release (zero-order, Higuchi, Korsmeyer–Peppas, and Hixon Crowell) to the different formulations, and the results are gathered in Table 2. The Korsmeyer–Peppas model was proven to be suitable to explain the release kinetics from the PT-R-Ms, which is a prerequisite for polymeric systems.

human macrophages = test: Biocompatibility against human macrophages (MTT); format: cell-based; conditions: high concentrations
Procedure: Biocompatibility studies of pure PTX, Ms, RMs, PR-Ms, and PT-R-Ms were performed against human macrophages. Ficoll-percoll gradient technique was used to isolate human macrophages. Ficoll solution was prepared by dissolving 5.6 g of ficoll in 9.5 mL deionized water and 5 mL gastrografin to achieve a density of 1.070 g/mL. The fresh human blood (10 cm^3) was diluted three times with Hanks buffer salt solution (HBSS), layered onto a percoll gradient and then centrifuged at 400× g for 5 min to isolate the macrophage layer. The separated cells were suspended in RPMI medium (10% FBS, 100 U/mL penicillin, 0.1 mg/mL streptomycin, and 25 mM HEPES) and incubated at 5% CO2. […] Normal cells were taken as negative controls, while cells treated with 1% Triton X were used as positive controls to investigate the viability.

HCT-116 cells [2] = test: Cell apoptosis by flow cytometry (Annexin V FITC/PI); format: cell-based, human; parameters: dose or concentration left out as unconfirmed; conditions: HCT-116, 48 h
Source text: After treatment, the cells were harvested and washed twice with cold PBS.

[3] = Oral pharmacokinetics of PTX; format: in vivo, rats
Source text: Healthy female rats weighing 120–150 g were selected and fasted overnight with free access to water and were randomly distributed into four groups and each group had four rats (n = 4).

[4] = In vivo biodistribution (fluorescence of excised organs and tumors); parameters: species or system rats; conditions: oral
Procedure: The fluorotagged PT-R-Ms were given orally to rats by oral gavage. After 48 h, rats were sacrificed and their major organs were excised to investigate the formulation distribution within them. The fluorescence intensity of the excised organs (heart, liver, spleen, and kidney) was examined using the iBox Explorer2 (iBox® Explorer2 Imaging Microscope; UVP Ltd. The system was set on a 535/45 nm excitation filter and a 605/50 nm emission filter with the automated BioLite™ MultiSpectral Light Source. Images were taken at 0.17× magnification, and the intensity was kept at 6 using the 3.2 MP OptiChemi 610 camera (Vision Works® LS Acquisition, AnlyticJena, Jena, Germany). An analysis software was used to study the images.

rats [5] = conditions: rat, in vivo, po, 20 mg/kg
Procedure: (§1) Healthy, female rats weighing 150 g and aged 10–14 weeks were taken from the animal house. Rats were divided into 4 groups (n = 4) and kept under a standard condition of food and water in the controlled environment. […] The dose (20 mg/kg) was administered orally through oral gavage. […] After 14 days, the rats were sacrificed for blood and serum biochemistry and tissue histology studies [29].
(§2) The blood from each rat was drawn through cardiac puncture into BD vacutainer blood collection tubes. […] The clear supernatant was carefully removed and stored at −20 °C. Liver function tests (LFTs) including alkaline phosphatase (ALP), serum glutamic-pyruvic transaminase (SGPT), serum glutamic-oxaloacetic transaminase (SGOT) and bilirubin, renal functions tests (RFTs) including urea and creatinine, serum electrolytes (Na, Mg, Ca, and P), glucose and total protein were analyzed using the serum.
(§3) Changes in the organs weight were measured to evaluate the toxicity of tested formulations. The vital organs (heart, kidneys, liver, and spleen) were removed from the rats after being sacrificed, washed with normal saline, and then weighed individually. The weights of organs from treated groups were compared with a control group and body mass index was calculated using the following formula [30]: organ−body weight index (%)=organ weight/body weight×100%
(§4) Vital organs (liver, kidney, heart, and spleen) were examined for toxicity and to notice any pathological changes [31]. The organs were stored in 10% formalin solution. A paraffin section (0.5 µm) was cut into the same size as the organ via a rotary microtome and was properly fixed. Tissue sections were then fixed onto glass slides followed by staining with hematoxylin and eosin periodic acid Schiff (PAS). The sections were examined under a microscope for any toxic effect produced by the redox and non-redox micelles.

in vitro = conditions: rat, pH 6.5
Procedure: Briefly, the study was conducted on the intestine of healthy rats weighing between 250–300 g. The rats were sacrificed and the abdomen was opened with a middle incision. The intestine was immediately removed, thoroughly washed with Krebs ringer solution (pH 6.5), and cut into pieces of 4–5 cm. The intestine was everted by carefully passing a narrow glass rod from one end of the intestine and then gently rolling it on a glass rod. All the pieces were stored in an oxygenated Krebs ringer solution at 4 °C until further use. […] Each segment was tied at one end with a silk suture, and 1 mL of sample (1 mg/mL) was carefully filled in the sac using a hypodermic syringe and the other end was tied with a silk suture. […] All filled sacs were immersed in tubes filled with 10 mL of oxygenated Krebs solution and incubated at 37 °C under gentle mechanical shaking. The samples were collected at predefined times from the surrounding medium and replaced with the same amount of fresh solution. […] The apparent permeability was calculated using the following equation:Apparent permeability (µg/cm^2) = (concentration × volume)/mucosal surface area
The mucosal surface area was calculated assuming that the intestine is a cylinder by using the formula:Mucosal surface area (cm^2) = circumference (π × diameter) × length

rats [6] = test: Acute oral toxicity (OECD 425), serum biochemistry, histopathology; conditions: single oral dose of 20 mg of PTX/kg, after 14 days
Procedure: as §1, §2, §3, §4

HCT-116 cells [7] = test: Cellular uptake of curcumin by fluorescence microscopy; format: cell-based, human; conditions: curcumin loaded into PT-R-Ms micelles, HCT-116, 0, 6, 12 h
Procedure: To analyze the internalization of curcumin (a P-gP inhibitor) into tumor cells, HCT-116 tumor cells were used. Curcumin as a fluorescent probe was encapsulated within the core of PT-R-Ms micelles following a similar procedure to that mentioned earlier for PTX loaded micelles. The HCT-116 cells were seeded into 6 well plates at a density of 1 × 10^6 cells/well. After 24 h the cells became confluent and were incubated with curcumin-loaded PT-R-Ms for different time periods (0, 6, 12 h). Upon incubation, the medium was removed and the cells were washed with cold PBS. Subsequently, the uptake of curcumin was monitored by fluorescence microscopy (Evos® FL Cell Imaging System, Thermo Fisher Scientific, Waltham, MA, USA). Ex vivo assays based on the tumor tissue slice model were used to analyze the curcumin uptake by inhibition of P-gP efflux pump overexpressed on tumor cells, as reported earlier. Different slides of tumor tissue were prepared and stained with curcumin-loaded PT-R-Ms. Similarly, HCT-116 tumor tissue cells were incubated for different time intervals to monitor the uptake of curcumin.

[8] = female, rat, plasma, oral gavage, 20 mg/kg

What does the source list for `CC(=O)O[C@H]1C(=O)[C@@]2(C)[C@H]([C@H](OC(=O)c3ccccc3)[C@]3(O)C[C@H](OC(=O)[C@H](O)[C@@H](NC(=O)c4ccccc4)c4ccccc4)C(C)=C1C3(C)C)[C@]1(OC(C)=O)CO[C@@H]1C[C@@H]2O` [PTX, paclitaxel]?
Higuchi Model K0 [1]: 40.117; Hixon Crowell Model K0 [1]: 0.190; Korsmeyer–Peppas Model N [1]: 0.701; Zero Order K0 [1]: 21.01; toxicity against human macrophages (human macrophages): cytotoxic; percentage of apoptotic cells (HCT-116 cells [2]): 28.57 ± 0.06%; time above the minimum effective concentration / within the therapeutic window ([3]; MEC 35 ng/mL, oral): 2 h; bioavailability ([3]; female, rat, plasma, po, 20 mg/kg): 7.5%; Cmax [3, 8]: 70.69 ± 0.14 ng/mL; half-life [3, 8]: 1970 ± 132 min; AUC(0-t) ([3]; female, rat, plasma, oral gavage, 20 mg/kg, read-out: AUC 0-96): 4271 ± 8.4 ng·h/mL; MRT last ([3]; female, rat, plasma, oral gavage, 20 mg/kg, read-out: MRT 0-96): 54.9 ± 2.7 h; Tmax ([3]; female, rat, plasma, oral gavage, 20 mg/kg, read-out: Tmax): 4 ± 0.2 h; Tmax ([3]; oral gavage, 20 mg/kg): 2 h; biodistribution: liver [4]: significantly higher uptake in the liver; histopathological changes in the liver tissue (rats [5]): cytoplasmic degeneration, necrosis, hemorrhage, and infiltration of inflammatory cells; histopathology of heart tissue (rats [5]): lesions, myocarditis, and infiltration of inflammatory cells; histopathology of kidney tissue (rats [5]): distorted glomeruli, dilated tubules, edema exudate, mild necrosis, and infiltration of inflammatory cells; histopathology of spleen tissue (rats [5]): distorted lymphoid architecture; Papp A→B at 1 mg/mL (in vitro): 0.43 ± 0.2 ×10⁻⁶ cm/s; Papp B→A at 1 mg/mL (in vitro): 2.35 ± 0.2 ×10⁻⁶ cm/s; Mortality, tissue damage, or bodyweight change (rats [6]): not observed

For `COc1cc(/C=C/C(=O)CC(=O)/C=C/c2ccc(O)c(OC)c2)ccc1O` [curcumin], which “time of maximum curcumin uptake” value (HCT-116 cells [7]) is on record?
Its value is 12 h.
